Our source for the inhibition in vivo and IC50 values is patent US7166597B2, “Fused pyrazole derivatives being protein kinase inhibitors” (Glaxo Group Limited, priority 2000, dated 2007).

For series [1], the system named is serum TNFα elevation in mice treated with lipopolysaccharide (LPS). Put plainly: Murine LPS-Stimulated Serum TNF Inhibition. In kind it is in vivo. The note with it: Mus musculus, 1.5 h, dose 30 mpk, read-out: % inh. (dose): % inhibition of murine TNF production in mice following an LPS challenge. The protocol: Murine LPS—Stimulated Serum TNF Inhibition Protocol
The potency of compounds of the invention as inhibitors of serum TNFα elevation in mice treated with lipopolysaccharide (LPS) was determined as follows; a) for subcutaneous (s.c.) administration, test compound was dissolved in DMSO and added to a mixture of 0.9% sodium chloride solution and 30% Trappsol HPB-20 (Cyclodextrin Technology Development Inc., Gainesville, Fla. USA) for a final DMSO concentration of 1%. The dosing solution was sonicated briefly and 0.2 mL was injected subcutaneously 10 min prior to LPS injection; b) for per oral (p.o.) administration, test compounds were formulated in 0.2 mL of PBS and 0.1% Tween 80 and given orally via gavage 10 min prior to LPS administration.
C3/hen female mice were injected intraperitoneally with 200 μg/kg LPS (Escherichia coil, Serotype 0111:B4, Sigma Chemical Co, St. Louis, Mo.) in PBS and sacrificed 90 min later by CO2 asphyxiation. Blood was immediately taken from the caudal vena cava and plasma prepared and frozen at −80° C. Plasma concentrations of TNF were measured by ELISA (Genzyme Co., Cambridge Mass.).

The target in series [2] is T1, JNK3 kinase (Jnk-3alpha-2) (Homo sapiens, UniProt P53779).
T1 construct: Jnk-3alpha-2 (as a truncated construct, residues 39 to 224) was expressed in E. coli as a GST fusion protein; Following purification the GST portion was removed by thrombin cleavage; fused on or other part: An N-terminal GST tag was used for expression and removed by thrombin cleavage before the assay
The series is described as follows: JNK3 Kinase Assay. In kind it is biochemical. To be noted: Table 8; read-out: JNK3 kinase (inhibition of JNK3 kinase, IC50).

Series [3] concerns TNF release from human peripheral blood mononuclear cells (PBMNC). The series is described as follows: Cell Based Assay for Cytokines Production in PBMNC (TNF release after LPS). The note with it: PBMC, read-out: TNF/PBMNC (inhibition of TNF release from human PBMNC following stimulation with LPS, IC50). The protocol: Cell Based Assay for Cytokines Production in PBMNC
Human peripheral blood mononuclear cells were isolated from heparinized blood by LSM (Organon Teknika) from volunteer donors. Purified human peripheral blood mononuclear cells were then suspended at a concentration of 2×10^6 cells/ml in RPMI 1640 medium supplemented with 10% heat-inactivated FBS and 1% antibiotics. Aliquots of 100 μl (2×10^5 cells) were added to 96-well microliter plates. Test compounds at […] dose ranges (final-DMSO concentration in culture medium was 0.1%) were then added to the cells for 10–15 minutes before the addition of lipopolysaccharide (1 ng/ml). After incubation at 37° C. in a 5% CO2 incubator for 18–20 h, cell free supernatants were collected by centrifugation at 800 g. The supernatant was then assayed for the amount of TNFα and IL-1β by using Quantikine immunoassay kits developed by R&D Systems (Minneapolis, Minn.).

The target in series [4] is T2, p38 kinase (Homo sapiens, UniProt Q16539).
T2 construct: GST (N); made in house; host or cells: E. coli
Put plainly: p38 Kinase Assay. In kind it is biochemical.

Series [5] is described as follows: Cell Based Efficacy (MTT Assay), cytotoxicity toward HFF. To be noted: human, HFF cells (human foreskin fibroblasts). The protocol:
Cell Based Efficacy (MTT Assay)
The potency of compounds of the invention are tested for their ability to inhibit cell proliferation and cell viability. The metabolic conversion of 3-(4,5-dimethylthiazol-2-yl)-2,5-diphenyltetrazolium bromide (MTT, Sigma #M2128) to a reduced form was a commonly used measure of cellular viability. Following was the procedure:
Cells are maintained in 75 cm^2 tissue culture flasks until ready for use. The cells are grown and plated for the assay in Dulbecco's modified Eagle's media containing 10% fetal bovine serum. For example, the following cell lines can be used: a) human foreskin fibroblasts (HFF), b) HT29 (human colon carcinoma cell line), c) MDA-MB468 (human breast carcinoma cell line), d) RKO (human colon adenocarcinoma cell line), e) SW620 (human colon carcinoma cell line), f) A549 (human lung carcinoma cell line), and g) MIA PACA (human pancreatic carcinoma cell line). Cells are maintained at 37° C. in 10% CO2, 90% humidified air. Cells are plated in 96-well tissue culture plates at the densities listed below (Table 6). 100 μL of cell suspension was added to each well of the 96-well plate except the top row of the plate which contains no cells and serves as a reference for the spectrophotometer.
Cells are incubated overnight in Dulbecco's modified Eagle's media containing 10% fetal bovine serum at 37° C. in 10% CO2, 90% humidified air prior to dosing. Cells are dosed in 10 sequential 3-fold dilutions starting at 30 μM depending upon the solubility of the compound. Compounds with solubilities of less than 30 μM are dosed at the highest soluble concentration. Stock solutions of compounds are made in 100% dimethyl sulfoxide (DMSO). Stock solutions are diluted in Dulbecco's modified Eagle's media containing 100 ug/mL gentamicin and 0.3 to 0.6% DMSO at the twice the highest concentration to be placed on the cells. If compounds have been dissolved in DMSO the final concentration of DMSO on the cells was kept below 0.3%. 3-fold serial dilutions are performed on each compound to prepare 10 concentrations of the compound for dosing. 100 μL of diluted compound was added to the 100 μL of media currently on the dish. For each concentration of compound, 2–4 replicate wells are prepared.
Cells are returned to incubator and allowed to proliferate in the presence of compound for 72 h before addition of MTT. MTT was prepared in phosphate buffered saline (Irvine Scientific #9240) at a concentration of 2 mg/mL. 50 μL per well of MTT solution was added to the 200 μL of media to yield a final concentration of 0.4 mg/mL and plates are returned to the incubator for 4 h. After 4 h incubation the media, compound and MTT mixture was aspirated from the plates and 100 μL of 100% DMSO was added to each well in addition to 25 uL of Sorenson's Buffer (0.1M glycine, 0.1M NaCl, pH 10.5). Quantitation of metabolic reduction of MTT in each plate was performed by reading optical density at 570 nm wavelength on a Molecular Devices UV max microplate reader. Growth inhibition curves and 50% inhibitory concentrations are determined using Microsoft Excel.

Where [6] appears, read: Table 8, compounds wherein Z is N, read-out: p38 kinase (inhibition of p38 kinase, IC50).
The mark [7] stands for this setting: Table 7, compounds wherein Z is CH, read-out: P38 kinase (inhibition of p38 kinase, IC50).

The structures appear in SMILES notation. Read-outs that look alike come from different tables or passages of the source. A value given as a limit tells only on which side of the number the result lay.

T2 sequence (Q16539 whole entry): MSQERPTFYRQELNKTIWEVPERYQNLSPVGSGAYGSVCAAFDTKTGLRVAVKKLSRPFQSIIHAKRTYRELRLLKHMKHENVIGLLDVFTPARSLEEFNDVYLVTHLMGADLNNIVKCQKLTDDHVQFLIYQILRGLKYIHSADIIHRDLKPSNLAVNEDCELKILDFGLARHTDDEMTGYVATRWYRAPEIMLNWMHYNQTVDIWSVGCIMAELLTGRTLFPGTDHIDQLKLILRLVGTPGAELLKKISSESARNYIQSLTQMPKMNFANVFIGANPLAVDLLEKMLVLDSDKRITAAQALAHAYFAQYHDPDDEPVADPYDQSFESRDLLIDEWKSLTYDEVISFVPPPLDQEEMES
T1 sequence (P53779 39-402 limits assumed): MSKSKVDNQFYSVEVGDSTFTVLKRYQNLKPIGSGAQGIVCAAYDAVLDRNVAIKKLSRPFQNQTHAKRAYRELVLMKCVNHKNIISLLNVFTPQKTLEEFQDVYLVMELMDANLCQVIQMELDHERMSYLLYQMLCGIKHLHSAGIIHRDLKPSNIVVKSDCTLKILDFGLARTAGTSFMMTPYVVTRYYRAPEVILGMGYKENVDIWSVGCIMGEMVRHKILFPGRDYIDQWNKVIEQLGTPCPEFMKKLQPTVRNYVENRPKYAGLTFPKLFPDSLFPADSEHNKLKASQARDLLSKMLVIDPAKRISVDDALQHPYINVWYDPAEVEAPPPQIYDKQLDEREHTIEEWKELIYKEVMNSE

In the case of `Fc1ccc(-c2nn3cc(C(F)(F)F)ccc3c2-c2ccnc(NC3CC3)n2)cc1` [Example 68, N-Cyclopropyl-4-[2-(4-fluorophenyl)-6-trifluoromethylpyrazolo[1,5-a]pyridin-3-yl]-2-pyrimidinamine], the inhibition in vivo at 30 mg/kg in series [1] (Table 8, LPS challenge) is 24%. The IC50 in series [2] was below 0.5 µM; in series [3] (Table 8, LPS stimulation), below 0.5 µM; in series [4] (setting [6]), below 0.5 µM.

As for `N#Cc1ccc2c(-c3ccnc(NC4CC4)n3)c(-c3ccc(F)cc3)nn2c1` [Example 73, N-Cyclopropyl-4-[6-cyano-2-(4-fluorophenyl)pyrazolo[1,5-a]pyridin-3-yl]-2-pyrimidinamine], in series [1] (Table 8, LPS challenge), the inhibition in vivo at 30 mg/kg turned out to be 52%. The IC50 was below 0.5 µM in series [2]; below 0.5 µM in series [3] (Table 8, LPS stimulation); below 0.5 µM in series [4] (setting [6]).

For `Fc1ccc(-c2nn3ccccc3c2-c2ccncc2)cc1` [Example 1, 2-(4-Fluorophenyl)-3-(4-pyridyl)-pyrazolo[1,5-a]pyridine], the inhibition in vivo at 30 mg/kg in series [1] (Table 7, LPS challenge) turned out to be 65%. The compound further gave an IC50 at 72 h in series [5] (Table 7, HFF cell line) above 50 µM. For the same compound, the IC50 in series [3] (Table 7, LPS stimulation) is below 0.5 µM; in series [4] (setting [7]), below 0.5 µM.

Regarding `Fc1ccc(-c2nn3ccccc3c2-c2ccnc(NCc3cccnc3)c2)cc1` [Example 37, 4-[2-(4-Fluorophenyl)pyrazolo[1,5-a]pyridin-3-yl]-N-(3-pyridinylmethyl)-2-pyridinamine], the IC50 at 72 h in series [5] (Table 7, HFF cell line) is 5 to 50 µM. The IC50 in series [3] (Table 7, LPS stimulation) is below 0.5 µM; in series [4] (setting [7]) it was below 0.5 µM.

In the case of `Fc1ccc(-c2nn3ccccc3c2-c2ccncn2)cc1` [Example 56, 2-(4-Fluorophenyl)-3-(4-pyrimidinyl)-pyrazolo[1,5-a]pyridine], the inhibition in vivo at 30 mg/kg in series [1] (Table 8, LPS challenge) turned out to be 67%. Besides, in series [5] (Table 8, HFF cell line), the IC50 at 72 h was above 50 µM. Also, the IC50 fell in the range of 0.5 to 5 µM in series [3] (Table 8, LPS stimulation) and 0.5 to 5 µM in series [4] (setting [6]).

As to `OCCCNc1cc(-c2c(-c3ccc(F)cc3)nn3ccccc23)ccn1` [Example 30, 3-(4-[2-(4-Fluorophenyl)pyrazolo[1,5-a]pyridin-3-yl]-2-pyridinylamino)-1-propanol], the inhibition in vivo at 30 mg/kg in series [1] (Table 7, LPS challenge) came out at 45%. The IC50 at 72 h in series [5] (Table 7, HFF cell line) is above 50 µM. For the same compound, the IC50 in series [3] (Table 7, LPS stimulation) is below 0.5 µM; in series [4] (setting [7]) it was below 0.5 µM.

As to `Nc1ncccc1C(=O)OCc1ccn2nc(-c3ccc(F)cc3)c(-c3ccncc3)c2c1` [Example 16, [2-(4-Fluorophenyl)-3-(4-pyridinyl)pyrazolo[1,5-a]pyridin-5-yl]methyl 2-aminonicotinate], the IC50 at 72 h in series [5] (Table 7, HFF cell line) is above 50 µM. For the same compound, the IC50 was below 0.5 µM in series [3] (Table 7, LPS stimulation) and below 0.5 µM in series [4] (setting [7]).

With `NC(=O)c1ccc2c(-c3ccnc(NC4CC4)n3)c(-c3ccc(F)cc3)nn2c1` [Example 75, 2-(4-Fluorophenyl)-3-(4-(2-cyclopropylamino)pyrimidinyl)-6-pyrazolo-[1,5-a]pyridinylcarboxamide], the inhibition in vivo at 30 mg/kg in series [1] (Table 8, LPS challenge) was 90%. Further, the IC50 in series [2] is below 0.5 µM; in series [3] (Table 8, LPS stimulation) it was below 0.5 µM.
